# Reference: PubChem BioAssay AID248 (DTP/NCI, 2004)
# “And” between values parts separate entries of the source, which are not always exact repeats. Equal values may be shown once. Inconclusive results and toxic doses are left out.
# System: L1210 leukemia ip in BDF1 mice, survival T/C
# Test: NCI In Vivo Anticancer Drug Screen. Data for tumor model L1210 Leukemia (intraperitoneal) in B6D2F1 (BDF1) mice
# Settings: endpoint: mean survival time, higher = longer survival
# Method in brief: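 Mice bearing the transplanted tumor received compound or vehicle. Survival of the treated group was divided by that of the vehicle-treated control group to give the ratio.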
# [1] = dose: 50.0 mg/kg/injection, schedule: Q01DX009 (ip), vehicle: Klucel (hydroxypropylcellulose) (HPC)
# [2] = dose: 100.0 mg/kg/injection, schedule: Q01DX001 (ip), vehicle: Klucel (hydroxypropylcellulose) (HPC)
# [3] = dose: 100.0 mg/kg/injection, schedule: Q01DX009 (ip), vehicle: Klucel (hydroxypropylcellulose) (HPC)
# [4] = dose: 100.0 mg/kg/injection, schedule: Q04DX003 (ip), vehicle: Klucel (hydroxypropylcellulose) (HPC)
# [5] = dose: 200.0 mg/kg/injection, schedule: Q01DX001 (ip), vehicle: Klucel (hydroxypropylcellulose) (HPC)
# [6] = dose: 200.0 mg/kg/injection, schedule: Q04DX003 (ip), vehicle: Klucel (hydroxypropylcellulose) (HPC)
# [7] = dose: 100.0 mg/kg/injection, schedule: Q04DX003 (ip), vehicle: saline
# [8] = dose: 200.0 mg/kg/injection, schedule: Q04DX003 (ip), vehicle: saline
# [9] = dose: 400.0 mg/kg/injection, schedule: Q04DX003 (ip), vehicle: saline
# [10] = dose: 400.0 mg/kg/injection, schedule: Q04DX003 (ip), vehicle: Klucel (hydroxypropylcellulose) (HPC)
smiles,measurement,setting,value
CC(C)=C1C2CCC1C1C(=O)OC(=O)C21 (stereo not given),T/C,[1],95 % of control
same,T/C,"dose: 50.0 mg/kg/injection, schedule: Q04DX003 (ip), vehicle: Klucel (hydroxypropylcellulose) (HPC)",102 % of control
same,T/C,[2],98 % of control
same,T/C,[3],88 % of control
same,T/C,[4],102 % of control
same,T/C,[5],105 % of control
same,T/C,[6],100 % of control
CCC(C)C(C(=O)OC1CCN(CC)CC1)c1ccccc1 (stereo not given),T/C,[7],94 % of control
Cc1cc(C)c(-c2cc(C(O)C3OC4OC(C)(C)OC4C4OC(C)(C)OC34)on2)c(C)c1 (stereo not given),T/C,"dose: 100.0 mg/kg/injection, schedule: Q04DX002 (ip), vehicle: saline with Tween-80",97 % of control
same,T/C,"dose: 200.0 mg/kg/injection, schedule: Q04DX002 (ip), vehicle: saline with Tween-80",87 % of control
same,T/C,"dose: 400.0 mg/kg/injection, schedule: Q04DX002 (ip), vehicle: saline with Tween-80",87 % of control
C=CCOc1ccc2c(cc1=O)C(NC(C)=O)CCc1cc(OC)c(OC)c(OC)c1-2 (stereo not given),T/C,"dose: 100.0 mg/kg/injection, schedule: Q01DX001 (ip), vehicle: carboxymethylcellulose (CMC)",114 % of control
same,T/C,"dose: 200.0 mg/kg/injection, schedule: Q01DX001 (ip), vehicle: carboxymethylcellulose (CMC)",120 % of control
same,T/C,"dose: 400.0 mg/kg/injection, schedule: Q01DX001 (ip), vehicle: carboxymethylcellulose (CMC)",117 % of control
Clc1ccc([PH+](c2ccc(Cl)cc2)c2ccc(Cl)cc2)cc1.Clc1ccc([PH+](c2ccc(Cl)cc2)c2ccc(Cl)cc2)cc1.[Cl][Hg][Cl],T/C,"dose: 6.25 mg/kg/injection, schedule: Q01DX009 (ip), vehicle: Klucel (hydroxypropylcellulose) (HPC)",108 % of control
same,T/C,"dose: 12.5 mg/kg/injection, schedule: Q01DX009 (ip), vehicle: Klucel (hydroxypropylcellulose) (HPC)",94 % of control
same,T/C,"dose: 25.0 mg/kg/injection, schedule: Q01DX009 (ip), vehicle: Klucel (hydroxypropylcellulose) (HPC)",97 % of control
same,T/C,[1],96 % of control
C/C=C/C[P+](Cc1ccccc1)(c1ccccc1)c1ccccc1,T/C,"dose: 3.13 mg/kg/injection, schedule: Q01DX009 (ip), vehicle: saline with Tween-80",103 % of control
same,T/C,"dose: 12.5 mg/kg/injection, schedule: Q01DX009 (ip), vehicle: saline with Tween-80",120 % of control and 91 % of control
NC(=O)c1[nH]cnc1/N=N/N(CCF)CCF,T/C,"dose: 1.87 mg/kg/injection, schedule: Q01DX009 (ip), vehicle: other",106 % of control
same,T/C,"dose: 3.75 mg/kg/injection, schedule: Q01DX009 (ip), vehicle: other",123 % of control
same,T/C,"dose: 10.0 mg/kg/injection, schedule: Q01DX001 (ip), vehicle: other",106 % of control
same,T/C,"dose: 15.0 mg/kg/injection, schedule: Q01DX009 (ip), vehicle: other",153 % of control
Oc1cccc(N=Cc2ccccc2O)c1,T/C,[2],102 % of control
same,T/C,"dose: 100.0 mg/kg/injection, schedule: Q01DX001 (ip), vehicle: saline",97 % of control
same,T/C,[5],96 % of control
same,T/C,"dose: 200.0 mg/kg/injection, schedule: Q01DX001 (ip), vehicle: saline",100 % of control
same,T/C,"dose: 400.0 mg/kg/injection, schedule: Q01DX001 (ip), vehicle: Klucel (hydroxypropylcellulose) (HPC)",101 % of control
same,T/C,"dose: 400.0 mg/kg/injection, schedule: Q01DX001 (ip), vehicle: saline",105 % of control
Cc1cc2ncn(CC(=O)O)c2cc1C,T/C,[7],101 % of control
same,T/C,[8],95 % of control
same,T/C,[9],97 % of control
CS(=O)(=O)OCC(=O)NCCNC(=O)COS(C)(=O)=O,T/C,"dose: 25.0 mg/kg/injection, schedule: Q01DX Z (ip), vehicle: saline",109 % of control
same,T/C,"dose: 33.0 mg/kg/injection, schedule: Q01DX Z (ip), vehicle: carboxymethylcellulose (CMC)",113 % of control and 120 % of control
same,T/C,"dose: 47.0 mg/kg/injection, schedule: Q01DX Z (ip), vehicle: carboxymethylcellulose (CMC)",122 % of control
same,T/C,"dose: 50.0 mg/kg/injection, schedule: Q01DX015 (ip), vehicle: saline",108 % of control and 122 % of control
same,T/C,"dose: 50.0 mg/kg/injection, schedule: Q01DX Z (ip), vehicle: carboxymethylcellulose (CMC)",104 % of control
same,T/C,"dose: 50.0 mg/kg/injection, schedule: Q01DX Z (ip), vehicle: saline",109 % of control
same,T/C,"dose: 50.0 mg/kg/injection, schedule: Q04DX003 (ip), vehicle: carboxymethylcellulose (CMC)",111 % of control
same,T/C,"dose: 66.0 mg/kg/injection, schedule: Q01DX Z (ip), vehicle: carboxymethylcellulose (CMC)",106 % of control
same,T/C,"dose: 75.0 mg/kg/injection, schedule: Q01DX Z (ip), vehicle: carboxymethylcellulose (CMC)",120 % of control
same,T/C,"dose: 100.0 mg/kg/injection, schedule: Q01DX015 (ip), vehicle: saline",114 % of control
same,T/C,"dose: 100.0 mg/kg/injection, schedule: Q01DX Z (ip), vehicle: saline",115 % of control
same,T/C,"dose: 100.0 mg/kg/injection, schedule: Q04DX003 (ip), vehicle: carboxymethylcellulose (CMC)",110 % of control
same,T/C,"dose: 105.0 mg/kg/injection, schedule: Q01DX Z (ip), vehicle: carboxymethylcellulose (CMC)",154 % of control
same,T/C,"dose: 115.0 mg/kg/injection, schedule: Q01DX Z (ip), vehicle: carboxymethylcellulose (CMC)",120 % of control
same,T/C,"dose: 175.0 mg/kg/injection, schedule: Q01DX Z (ip), vehicle: carboxymethylcellulose (CMC)",118 % of control
same,T/C,"dose: 180.0 mg/kg/injection, schedule: Q01DX009 (ip), vehicle: saline",168 % of control
same,T/C,"dose: 200.0 mg/kg/injection, schedule: Q04DX003 (ip), vehicle: carboxymethylcellulose (CMC)",119 % of control
same,T/C,[8],111 % of control
same,T/C,"dose: 225.0 mg/kg/injection, schedule: Q01DX Z (ip), vehicle: carboxymethylcellulose (CMC)",92 % of control
same,T/C,"dose: 256.0 mg/kg/injection, schedule: Q01DX009 (ip), vehicle: saline",161 % of control and 169 % of control
same,T/C,"dose: 400.0 mg/kg/injection, schedule: Q01DX015 (ip), vehicle: saline",162 % of control
same,T/C,"dose: 400.0 mg/kg/injection, schedule: Q01DX Z (ip), vehicle: carboxymethylcellulose (CMC)",102 % of control
same,T/C,"dose: 400.0 mg/kg/injection, schedule: Q01DX Z (ip), vehicle: saline",105 % of control
same,T/C,[9],116 % of control
same,T/C,"dose: 800.0 mg/kg/injection, schedule: Q04DX003 (ip), vehicle: saline",116 % of control
Cc1cc(-c2ccc(NS(=O)(=O)c3ccccc3)c(C)c2)ccc1NS(=O)(=O)c1ccccc1,T/C,"dose: 25.0 mg/kg/injection, schedule: Q01DX001 (ip), vehicle: saline with Tween-80",95 % of control
same,T/C,"dose: 50.0 mg/kg/injection, schedule: Q01DX001 (ip), vehicle: saline with Tween-80",98 % of control
same,T/C,"dose: 100.0 mg/kg/injection, schedule: Q01DX001 (ip), vehicle: saline with Tween-80",92 % of control and 104 % of control
same,T/C,"dose: 200.0 mg/kg/injection, schedule: Q01DX001 (ip), vehicle: saline with Tween-80",89 % of control
O=C1CCC2CN3CCc4c([nH]c5ccccc45)C3CC2C1 (stereo not given),T/C,"dose: 75.0 mg/kg/injection, schedule: Q01DX001 (ip), vehicle: other",110 % of control
C(=C/c1ccc(/C=C/c2ccccc2)cc1)/c1ccccc1,T/C,[3],98 % of control
same,T/C,[4],98 % of control
same,T/C,"dose: 200.0 mg/kg/injection, schedule: Q01DX009 (ip), vehicle: Klucel (hydroxypropylcellulose) (HPC)",93 % of control
same,T/C,[6],104 % of control
same,T/C,"dose: 400.0 mg/kg/injection, schedule: Q01DX009 (ip), vehicle: Klucel (hydroxypropylcellulose) (HPC)",95 % of control
same,T/C,[10],90 % of control
CCC1(N)COC(c2ccccc2)OC1 (stereo not given),T/C,[1],109 % of control
same,T/C,[3],88 % of control
Oc1ccc(C(c2ccc(O)c(Br)c2)c2ccccn2)cc1Br,T/C,[4],100 % of control
same,T/C,[6],98 % of control
same,T/C,[10],96 % of control
CCCCCCCCCCCCCCCCCCNC(=O)Nc1cc(C(C)C)ccc1C,T/C,"dose: 100.0 mg/kg/injection, schedule: Q01DX009 (ip), vehicle: other",86 % of control
same,T/C,"dose: 200.0 mg/kg/injection, schedule: Q01DX009 (ip), vehicle: other",88 % of control
same,T/C,"dose: 400.0 mg/kg/injection, schedule: Q01DX009 (ip), vehicle: other",99 % of control and 100 % of control
CN1CCN(C(=O)C2C(c3ccccc3)C2c2ccc(Cl)c(Cl)c2)CC1 (stereo not given),T/C,"dose: 12.5 mg/kg/injection, schedule: Q04DX002 (ip), vehicle: saline with Tween-80",95 % of control and 98 % of control
same,T/C,"dose: 25.0 mg/kg/injection, schedule: Q04DX002 (ip), vehicle: saline with Tween-80",103 % of control
same,T/C,"dose: 50.0 mg/kg/injection, schedule: Q04DX002 (ip), vehicle: saline with Tween-80",92 % of control and 88 % of control
